From ChEMBL document CHEMBL1201862, “PubChem BioAssay data set” (2004)
Active and inactive are the calls of the source.

What was measured:
[1] = biological target: ADP-ribosylation factor GTPase-activating protein 1 (Rattus norvegicus, UniProt Q62848); assay: Fluorescence polarization-based biochemical high throughput dose response screening assay to identify inhibitors of ADP-ribosylation factor GTPase activating protein 1 (ARFGAP1).; assay type: functional
[2] = biological target: T1, Rac GTPase-activating protein 1 (Homo sapiens, UniProt Q9H0H5); assay: blockers of MgcRacGAP-driven Rac1 GTP hydrolysis – biochemical, ADP Hunter fluorescence, primary and confirmatory, confirmation (AID 624330); assay type: functional
T1 sequence (Q9H0H5 whole entry): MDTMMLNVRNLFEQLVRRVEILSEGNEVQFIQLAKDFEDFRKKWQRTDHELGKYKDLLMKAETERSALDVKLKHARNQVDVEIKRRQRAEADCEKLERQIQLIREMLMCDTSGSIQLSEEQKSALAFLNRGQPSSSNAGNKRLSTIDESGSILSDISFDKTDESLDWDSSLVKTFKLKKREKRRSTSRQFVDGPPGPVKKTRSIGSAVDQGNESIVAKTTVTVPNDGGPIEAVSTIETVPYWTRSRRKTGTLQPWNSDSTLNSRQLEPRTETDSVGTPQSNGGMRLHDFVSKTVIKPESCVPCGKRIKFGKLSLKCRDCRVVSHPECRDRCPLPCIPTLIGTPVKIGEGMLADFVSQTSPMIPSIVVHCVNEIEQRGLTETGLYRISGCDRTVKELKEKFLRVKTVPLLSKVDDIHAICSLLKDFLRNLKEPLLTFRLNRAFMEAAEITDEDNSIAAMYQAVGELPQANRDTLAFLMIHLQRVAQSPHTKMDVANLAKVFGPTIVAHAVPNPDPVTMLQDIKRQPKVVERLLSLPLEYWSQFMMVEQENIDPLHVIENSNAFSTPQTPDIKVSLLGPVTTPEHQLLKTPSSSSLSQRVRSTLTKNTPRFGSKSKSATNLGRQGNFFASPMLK

[3] = viability loss in HeLa cells – cytotoxicity control for MgcRacGAP inhibitor project, dose response (AID 624300); assay type: functional
[4] = biological target: Broad substrate specificity ATP-binding cassette transporter ABCG2 (Homo sapiens, UniProt Q9UNQ0); assay: blockers of JC-1 export by ABCG2 – Ig-MXP3 cells, flow cytometry, dose response (AID 1690); assay type: functional
[5] = biological target: T2, Sentrin-specific protease 1 (Homo sapiens, UniProt Q9P0U3); assay: SENP1 catalytic domain blockers, concentration series – biochemical, kinetic FRET, dose response (AID 651697); assay type: functional; conditions: read-out: IC50_Mean
[6] = biological target: T2, Sentrin-specific protease 1; assay: Dose response confirmation of small molecule inhibitors of the catalytic domain of the SUMO protease, SENP1 in a FRET assay.; assay type: functional; conditions: read-out: IC50_Mean
[7] = fluconazole-exposed Candida albicans growth modulators – fluorescence, retest, confirmation (AID 2467); assay type: functional, cell-based
[8] = viability of PTEN-deleted HCT116 cells – cell-based, HCT116 PTEN knockout, dose response (AID 1047); assay type: functional;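 note: HCT116 colon tumor cells with PTEN knocked out; cells exposed to compound for 60 hours before readout; potency for loss of cell viability measured by luminescence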
[9] = Trypanosoma cruzi growth suppression in host cells – NIH3T3 host cells, beta-gal luminescence, confirmation (AID 2044); assay type: functional, cell-based;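 note: intracellular parasites grown in NIH/3T3 mouse fibroblasts as host cells; luminescent beta-galactosidase reporter signal from transgenic T. cruzi replicating inside host cells; inhibitors lower the luminescence signal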
[10] = general mammalian cell viability loss – activator set, cherry-pick, cytotoxicity control for miR-122 modulator project, dose response (AID 720690); assay type: functional, cell-based;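 note: HEK293T human cells scored for general mammalian cytotoxicity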
[11] = activation of miR-122 Renilla sensor silencing – cell-based, Huh7 psiCHECK-miR122, Renilla luciferase, cherry-picked, dose response (AID 651956); assay type: functional;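 note: huh7 hepatoma cells stably carrying a psiCHECK-2 miR-122 sensor plasmid; renilla luciferase signal reporting endogenous miR-122 activity after 48 h compound exposure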
[12] = NIH-3T3 fibroblast cytotoxicity, dose response, cytotoxicity control, cell-based, fluorescence, Alamar Blue, secondary assay (AID 2327); assay type: functional;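 note: NIH-3T3 mouse fibroblasts cultured with fluconazole at 8 µg/mL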
[13] = viability of HCT116 lacking mutant beta-catenin – cell-based, human colon tumor, dose response (AID 1045); assay type: functional;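 note: HCT116 colon tumor cells with beta catenin knocked out; cells exposed to compound for 60 hours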
[14] = NIH3T3 cell viability loss – ATP luminescence, mouse fibroblasts, counter-screen, dose response (AID 2010); assay type: functional, cell-based;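 note: cells exposed to compound for about 90 hours before reading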
[15] = microbe, parasite or virus in culture; assay type: functional; conditions: Mycobacterium tuberculosis
[16] = biological target: T3, NACHT, LRR and PYD domains-containing protein 1 (Homo sapiens, UniProt Q9C000); assay: NALP1 inhibitors in yeast, dose response, luminescent (AID 488860); assay type: functional
T3 sequence (Q9C000 whole entry): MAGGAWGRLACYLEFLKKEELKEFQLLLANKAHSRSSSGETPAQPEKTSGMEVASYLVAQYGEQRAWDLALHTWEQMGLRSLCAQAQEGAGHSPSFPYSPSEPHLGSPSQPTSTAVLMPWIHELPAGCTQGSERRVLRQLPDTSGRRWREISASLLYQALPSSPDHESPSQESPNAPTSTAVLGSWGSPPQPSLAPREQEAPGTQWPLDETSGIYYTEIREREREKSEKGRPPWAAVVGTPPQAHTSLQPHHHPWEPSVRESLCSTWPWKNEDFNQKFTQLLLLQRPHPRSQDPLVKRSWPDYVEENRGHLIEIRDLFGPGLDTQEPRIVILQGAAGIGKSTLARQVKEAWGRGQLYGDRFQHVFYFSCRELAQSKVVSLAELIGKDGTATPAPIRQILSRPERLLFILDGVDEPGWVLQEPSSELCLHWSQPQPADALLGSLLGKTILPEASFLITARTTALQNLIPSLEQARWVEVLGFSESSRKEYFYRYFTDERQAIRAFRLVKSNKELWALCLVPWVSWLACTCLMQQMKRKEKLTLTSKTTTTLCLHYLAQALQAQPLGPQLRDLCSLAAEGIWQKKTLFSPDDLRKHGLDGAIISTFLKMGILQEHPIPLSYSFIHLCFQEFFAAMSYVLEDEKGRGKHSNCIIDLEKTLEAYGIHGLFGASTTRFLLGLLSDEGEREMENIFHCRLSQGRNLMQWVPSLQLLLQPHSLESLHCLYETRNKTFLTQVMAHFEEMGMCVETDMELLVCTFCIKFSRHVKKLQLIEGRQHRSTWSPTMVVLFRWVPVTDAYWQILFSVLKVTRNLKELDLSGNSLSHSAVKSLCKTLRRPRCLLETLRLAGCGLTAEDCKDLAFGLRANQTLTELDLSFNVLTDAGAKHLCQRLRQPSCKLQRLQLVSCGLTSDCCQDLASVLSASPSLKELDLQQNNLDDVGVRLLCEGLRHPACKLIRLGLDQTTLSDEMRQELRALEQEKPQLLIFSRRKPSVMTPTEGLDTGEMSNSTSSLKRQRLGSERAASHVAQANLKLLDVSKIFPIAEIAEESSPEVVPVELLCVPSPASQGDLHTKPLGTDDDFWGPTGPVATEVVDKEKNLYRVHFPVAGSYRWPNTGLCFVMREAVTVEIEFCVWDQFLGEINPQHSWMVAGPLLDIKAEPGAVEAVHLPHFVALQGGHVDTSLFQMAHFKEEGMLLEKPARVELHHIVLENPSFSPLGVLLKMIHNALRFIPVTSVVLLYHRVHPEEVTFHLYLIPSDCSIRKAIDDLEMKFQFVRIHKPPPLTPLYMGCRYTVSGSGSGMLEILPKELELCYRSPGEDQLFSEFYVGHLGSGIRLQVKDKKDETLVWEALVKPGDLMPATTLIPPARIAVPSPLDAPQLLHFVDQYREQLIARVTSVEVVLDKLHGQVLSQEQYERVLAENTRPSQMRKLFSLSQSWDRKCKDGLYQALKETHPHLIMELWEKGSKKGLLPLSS

[17] = biological target: T4, DNA repair protein RAD52 homolog (Homo sapiens, UniProt P43351); assay type: functional, biochemical
T4 sequence (P43351 whole entry): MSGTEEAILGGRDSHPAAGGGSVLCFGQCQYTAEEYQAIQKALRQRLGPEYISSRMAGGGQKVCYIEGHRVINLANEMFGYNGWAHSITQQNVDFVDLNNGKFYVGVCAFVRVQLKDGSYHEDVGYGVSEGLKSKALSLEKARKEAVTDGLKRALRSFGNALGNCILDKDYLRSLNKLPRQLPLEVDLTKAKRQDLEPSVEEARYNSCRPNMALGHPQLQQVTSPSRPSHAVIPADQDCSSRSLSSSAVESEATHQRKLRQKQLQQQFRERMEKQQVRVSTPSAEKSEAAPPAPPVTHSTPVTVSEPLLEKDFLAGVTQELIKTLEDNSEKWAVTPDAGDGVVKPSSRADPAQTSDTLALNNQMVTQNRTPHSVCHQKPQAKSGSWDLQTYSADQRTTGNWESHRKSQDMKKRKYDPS

[18] = Luminescence Cell-Based Dose Retest to Confirm Inhibitors of Cancer Stem Cells. [Related pubchem assays (depositor defined):AID2717, AID2721]; assay type: functional; conditions: Homo sapiens
[19] = cytotoxicity toward MDA-MB-231 breast cancer cells – cell-based, CellTiter-Glo luminescence, cherry-pick, cytotoxicity control for RAD54 inhibitor project, dose response (AID 651692); assay type: functional
[20] = tested on: Saccharomyces cerevisiae; assay: S. cerevisiae Caspase-1/ASC signal blockers IC50, NALP1 inhibitor project selectivity test (AID 488863); assay type: functional, organism-based
[21] = biological target: T5, DNA repair and recombination protein RAD54-like (Homo sapiens, UniProt Q92698); assay: RAD54 Holliday junction migration blockers – biochemical, fluorescence, cherry-picked samples, dose series, confirmation (AID 651657); assay type: functional
T5 sequence (Q92698 whole entry): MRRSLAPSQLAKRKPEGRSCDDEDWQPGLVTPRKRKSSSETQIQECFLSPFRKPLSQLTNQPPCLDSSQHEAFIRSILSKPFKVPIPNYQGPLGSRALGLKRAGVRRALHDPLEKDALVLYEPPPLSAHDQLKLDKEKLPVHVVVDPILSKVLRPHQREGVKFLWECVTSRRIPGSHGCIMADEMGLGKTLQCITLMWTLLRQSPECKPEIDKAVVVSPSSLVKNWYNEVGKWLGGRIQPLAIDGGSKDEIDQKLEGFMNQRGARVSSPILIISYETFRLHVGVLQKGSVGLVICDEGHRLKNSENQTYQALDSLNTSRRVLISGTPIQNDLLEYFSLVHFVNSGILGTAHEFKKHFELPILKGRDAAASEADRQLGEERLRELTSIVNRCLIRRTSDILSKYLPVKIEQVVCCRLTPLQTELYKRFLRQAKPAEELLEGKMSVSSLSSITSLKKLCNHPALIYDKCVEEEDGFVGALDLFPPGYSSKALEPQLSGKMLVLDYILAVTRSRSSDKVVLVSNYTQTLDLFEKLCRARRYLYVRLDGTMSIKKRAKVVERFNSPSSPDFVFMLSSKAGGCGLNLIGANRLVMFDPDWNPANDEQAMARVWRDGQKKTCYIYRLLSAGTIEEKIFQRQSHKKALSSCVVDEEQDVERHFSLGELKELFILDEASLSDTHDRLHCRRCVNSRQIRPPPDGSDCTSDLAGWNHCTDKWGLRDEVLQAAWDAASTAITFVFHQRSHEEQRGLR

T2 sequence (Q9P0U3 whole entry, the tested form may be a part): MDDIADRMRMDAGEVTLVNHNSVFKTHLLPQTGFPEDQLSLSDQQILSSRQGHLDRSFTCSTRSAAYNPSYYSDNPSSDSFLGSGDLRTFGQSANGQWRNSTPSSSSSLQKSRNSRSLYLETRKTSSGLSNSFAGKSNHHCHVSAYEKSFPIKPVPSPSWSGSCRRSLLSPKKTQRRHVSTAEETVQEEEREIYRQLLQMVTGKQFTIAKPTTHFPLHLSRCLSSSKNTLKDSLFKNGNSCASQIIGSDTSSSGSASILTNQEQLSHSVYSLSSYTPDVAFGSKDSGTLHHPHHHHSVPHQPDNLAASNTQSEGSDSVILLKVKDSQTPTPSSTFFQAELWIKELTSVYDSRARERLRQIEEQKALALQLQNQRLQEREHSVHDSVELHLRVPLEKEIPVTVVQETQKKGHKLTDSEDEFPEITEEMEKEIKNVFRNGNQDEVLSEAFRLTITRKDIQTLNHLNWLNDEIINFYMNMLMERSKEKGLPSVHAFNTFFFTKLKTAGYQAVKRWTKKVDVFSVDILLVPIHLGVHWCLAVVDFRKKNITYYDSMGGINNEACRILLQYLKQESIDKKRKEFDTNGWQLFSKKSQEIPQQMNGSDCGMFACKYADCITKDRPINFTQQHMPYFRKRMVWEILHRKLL
Broad substrate specificity ATP-binding cassette transporter ABCG2, sequence (Q9UNQ0 whole entry, the tested form may be a part): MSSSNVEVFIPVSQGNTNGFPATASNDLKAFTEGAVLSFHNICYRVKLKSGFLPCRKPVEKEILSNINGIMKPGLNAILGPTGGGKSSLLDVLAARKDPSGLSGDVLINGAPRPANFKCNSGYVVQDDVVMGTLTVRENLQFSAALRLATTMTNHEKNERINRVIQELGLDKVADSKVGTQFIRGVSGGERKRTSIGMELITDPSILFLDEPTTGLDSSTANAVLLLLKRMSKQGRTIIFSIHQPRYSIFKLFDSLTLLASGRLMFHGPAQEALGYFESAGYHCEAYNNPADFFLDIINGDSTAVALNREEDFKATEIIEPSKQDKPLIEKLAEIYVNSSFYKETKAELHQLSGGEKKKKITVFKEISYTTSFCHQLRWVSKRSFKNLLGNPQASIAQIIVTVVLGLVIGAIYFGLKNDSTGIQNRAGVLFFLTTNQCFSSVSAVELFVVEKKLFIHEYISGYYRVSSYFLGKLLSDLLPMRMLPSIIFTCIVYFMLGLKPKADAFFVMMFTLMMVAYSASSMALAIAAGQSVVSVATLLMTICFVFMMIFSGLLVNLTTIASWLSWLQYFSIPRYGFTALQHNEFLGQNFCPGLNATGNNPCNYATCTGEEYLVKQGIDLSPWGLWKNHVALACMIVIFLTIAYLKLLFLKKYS
ADP-ribosylation factor GTPase-activating protein 1, sequence (Q62848 whole entry): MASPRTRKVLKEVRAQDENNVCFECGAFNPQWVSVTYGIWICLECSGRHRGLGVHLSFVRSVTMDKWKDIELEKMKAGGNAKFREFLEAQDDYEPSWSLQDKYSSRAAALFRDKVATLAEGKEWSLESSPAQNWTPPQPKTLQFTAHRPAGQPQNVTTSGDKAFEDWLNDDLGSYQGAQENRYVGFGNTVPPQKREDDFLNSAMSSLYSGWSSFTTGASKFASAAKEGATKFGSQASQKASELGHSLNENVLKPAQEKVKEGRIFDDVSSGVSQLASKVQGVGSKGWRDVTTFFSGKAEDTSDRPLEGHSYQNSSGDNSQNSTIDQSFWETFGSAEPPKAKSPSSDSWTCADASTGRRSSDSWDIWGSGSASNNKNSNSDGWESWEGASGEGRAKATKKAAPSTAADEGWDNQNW

In the case of `O=C(Nc1ccc(-c2nc3ccccc3[nH]2)cc1)c1ccc2c(c1)OCO2`, the IC50 [1] is reported as 42 µM (inactive).
In the case of `COc1cc(/C=N/NC(=O)CCn2c3ccccc3c3ccccc32)ccc1O`, the IC50 [2] is reported as 85.8 µM (active) and the CC50 [3] is reported as 100 µM (active).
With `CC1=NN(c2ccc([N+](=O)[O-])cc2)C(=O)/C1=C/N(C)C` the EC50 [4] was 4 µM (active).
For `CCOC(=O)/C=C/c1cc(F)ccc1O`, the IC50 [5] was 13.8 µM (active) and the IC50 [6] was 11.2 µM (active).
With `N=c1c2c(-c3ccccc3)c(-c3ccccc3)n(Cc3ccccc3)c2ncn1CCO` the EC50 [7] was > 38 µM (not active), the EC50 [8] was 0.555 µM (active) and the EC50 [9] was 2.42 µM (active). For the same compound, the AC50 [10] was 23.4 µM (active), the AC50 [11] was 30.5 µM (active) and the EC50 [12] was > 150 µM (inactive). For the same compound, the EC50 [13] was 0.637 µM (active) and the EC50 [14] was > 30 µM (not active).
In the case of `OC(CN1CCCCC1)Cn1c2ccc(Cl)cc2c2cc(Cl)ccc21` (stereo not drawn), the EC50 [9] is reported as 2.43 µM (active), the CC50 [15] is reported as 14.5 µM (active) and the IC50 [16] is reported as 10.2 µM (active). For the same compound, the AC50 [17] was 12.1 µM (active), the AC50 [18] was 5.53 µM (active) and the AC50 [19] was 32.1 µM (active). The IC50 [20] was 7.1 µM (active), the EC50 [14] was 10.8 µM (active) and the AC50 [21] was 27.2 µM (active).
